Results as given in US6737383B1, “Herbicidal oxadiazolidines” (priority 1999, dated 2004).

How the values were obtained:
morningglory = assay: Test B pre/postemergence morningglory; format: in vivo, Ipomoea hederacea; conditions: for Plant response rating, Morningglory: scale of 0 to 10 where 0 is no effect and 10 is complete control
How it was run: (§1)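 Response is a visual 0-to-10 score relative to untreated plants, where 0 means no effect and 10 means complete control, taken twelve to sixteen days after application. Treatments went onto soil at planting and onto foliage of 1- to 4-leaf plants, using a surfactant-containing non-phytotoxic solvent.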

bamyardgrass = assay: Test B flood test barnyardgrass; format: in vivo, Echinochloa crus-galli
How it was run: (§2)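 Each value is a visual injury score relative to controls, with 10 meaning complete control and 0 no effect. Evaluation took place twelve to sixteen days after the 2-leaf-stage plants were treated and kept in the greenhouse.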

smallflower flatsedge = assay: Test B flood test smallflower flatsedge; format: in vivo, Cyperus difformis
How it was run: as §2

pigweed = assay: Test B pre/postemergence pigweed; format: in vivo, Amaranthus retroflexus; conditions: for Plant response rating, Redroot pigweed: scale of 0 to 10 where 0 is no effect and 10 is complete control
How it was run: as §1

crabgrass = assay: Test B pre/postemergence crabgrass; format: in vivo, Digitaria sanguinalis
How it was run: as §1

wild oat = assay: Test B pre/postemergence wild oat; format: in vivo, Avena fatua; conditions: for Plant response rating, Wild oats: scale of 0 to 10 where 0 is no effect and 10 is complete control
How it was run: as §1

sugar beet = assay: Test B pre/postemergence sugar beet; format: in vivo, Beta vulgaris; conditions: for Plant response rating, Sugarbeets: scale of 0 to 10 where 0 is no effect and 10 is complete control
How it was run: as §1

soybean = assay: Test B pre/postemergence soybean; format: in vivo, Glycine max; conditions: for Plant response rating, Soybean: scale of 0 to 10 where 0 is no effect and 10 is complete control
How it was run: as §1

giant foxtail = assay: Test B pre/postemergence giant foxtail; format: in vivo, Setaria faberii
How it was run: as §1

cocklebur = assay: Test B pre/postemergence cocklebur; format: in vivo, Xanthium strumarium
How it was run: as §1

duck salad = assay: Test B flood test duck salad; format: in vivo, Heteranthera limosa
How it was run: as §2

surinam grass = assay: Test B pre/postemergence surinam grass; format: in vivo, Brachiaria decumbens
How it was run: as §1

purple nutsedge = assay: Test B pre/postemergence purple nutsedge; format: in vivo, Cyperus rotundus; conditions: for Plant response rating, Nutsedge: scale of 0 to 10 where 0 is no effect and 10 is complete control
How it was run: as §1

rape = assay: Test B pre/postemergence rape; format: in vivo, Brassica napus; conditions: for Plant response rating, Rape: scale of 0 to 10 where 0 is no effect and 10 is complete control
How it was run: as §1

rice = assay: Test B flood test rice; format: in vivo, Oryza sativa
How it was run: as §2

corn = assay: Test B pre/postemergence corn; format: in vivo, Zea mays
How it was run: as §1

[1] = Postemergence, Rate 250 g/ha, scale 0 to 10
[2] = Preemergence, Rate 250 g/ha, scale 0 to 10, 0 is no effect, 10 is complete control
[3] = Preemergence, Rate 500 g/ha, scale 0 to 10, 0 is no effect, 10 is complete control
[4] = Rate 62 g/ha, Postemergence, scale 0 to 10 (0 no effect, 10 complete control)
[5] = Rate 125 g/ha, Postemergence, scale 0 to 10, 0 is no effect, 10 is complete control
[6] = Rate 62 g/ha, flood test species, Pre-emergence, visual evaluation after twelve to sixteen days
[7] = Rate 125 g/ha, under heading Pre-emergence, flood test species, visual evaluation after twelve to sixteen days
[8] = Rate 250 g/ha, Pre-emergence (flood test species), scale 0 to 10, 0 is no effect, 10 is complete control
[9] = Rate 500 g/ha, Pre-emergence, flood test species, scale 0 to 10 (0 no effect, 10 complete control)
[10] = Postemergence, Rate 500 g/ha, scale of 0 to 10 where 0 is no effect and 10 is complete control
[11] = Preemergence, Rate 62 g/ha, scale of 0 to 10 where 0 is no effect and 10 is complete control
[12] = Preemergence, Rate 125 g/ha, scale of 0 to 10 where 0 is no effect and 10 is complete control

## COC(OC)C(C)n1c(=O)on(C(=O)N(c2ccc(F)cc2)C(C)C)c1=O (centres unmarked) [Compound 471]
morningglory; [1]
  Morningglory plant response rating: 4
morningglory; Preemergence, Rate 62 g/ha
  Plant response rating, Morningglory: 0
morningglory; Preemergence, Rate 125 g/ha
  Plant response rating, Morningglory: 0
morningglory; [2]
  Morningglory plant response rating: 0
morningglory; [3]
  Morningglory plant response rating: 0
morningglory; [4]
  Morningglory plant response rating: 3
morningglory; [5]
  Morningglory plant response rating: 3
bamyardgrass; [6]
  Plant response rating, Barnyardgrass (0 to 10 scale, 0 is no effect, 10 is complete control): 0
bamyardgrass; [7]
  Barnyardgrass plant response rating (0 to 10 scale, 0 is no effect, 10 is complete control): 0
bamyardgrass; [8]
  Barnyardgrass plant response rating: 0
bamyardgrass; [9]
  Barnyardgrass plant response rating: 0
Smallflower flatsedge; [6]
  Plant response rating, S. Flatsedge (0 to 10 scale, 0 is no effect, 10 is complete control): 0
Smallflower flatsedge; [7]
  S. Flatsedge plant response rating (0 to 10 scale, 0 is no effect, 10 is complete control): 0
Smallflower flatsedge; [8]
  S. Flatsedge plant response rating: 0
Smallflower flatsedge; [9]
  S. Flatsedge plant response rating: 0
pigweed; [1]
  Redroot pigweed plant response rating: 2
pigweed; Preemergence, Rate 62 g/ha
  Plant response rating, Redroot pigweed: 10
pigweed; Preemergence, Rate 125 g/ha
  Plant response rating, Redroot pigweed: 10
pigweed; [2]
  Redroot pigweed plant response rating: 10
pigweed; [3]
  Redroot pigweed plant response rating: 10
pigweed; [4]
  Redroot pigweed plant response rating: 0
pigweed; [5]
  Redroot pigweed plant response rating: 0
crabgrass; [1]
  Crabgrass plant response rating: 8
crabgrass; [10]
  Crabgrass plant response rating: 9
crabgrass; [11]
  Plant response rating, Crabgrass: 9
crabgrass; [12]
  Plant response rating, Crabgrass: 10
crabgrass; [2]
  Crabgrass plant response rating: 10
crabgrass; [3]
  Crabgrass plant response rating: 10
crabgrass; [4]
  Crabgrass plant response rating: 1
crabgrass; [5]
  Crabgrass plant response rating: 3
Wild oat; [1]
  Wild oats plant response rating: 0
Wild oat; Preemergence, Rate 62 g/ha
  Plant response rating, Wild oats: 2
Wild oat; Preemergence, Rate 125 g/ha
  Plant response rating, Wild oats: 4
Wild oat; [2]
  Wild oats plant response rating: 7
Wild oat; [3]
  Wild oats plant response rating: 7
Wild oat; [4]
  Wild oats plant response rating: 0
Wild oat; [5]
  Wild oats plant response rating: 0
Sugar beet; [1]
  Sugarbeets plant response rating: 0
Sugar beet; Preemergence, Rate 62 g/ha
  Plant response rating, Sugarbeets: 0
Sugar beet; Preemergence, Rate 125 g/ha
  Plant response rating, Sugarbeets: 2
Sugar beet; [2]
  Sugarbeets plant response rating: 2
Sugar beet; [3]
  Sugarbeets plant response rating: 4
Sugar beet; [4]
  Sugarbeets plant response rating: 0
Sugar beet; [5]
  Sugarbeets plant response rating: 0
soybean; [1]
  Soybean plant response rating: 3
soybean; Preemergence, Rate 62 g/ha
  Plant response rating, Soybean: 0
soybean; Preemergence, Rate 125 g/ha
  Plant response rating, Soybean: 0
soybean; [2]
  Soybean plant response rating: 0
soybean; [3]
  Soybean plant response rating: 0
soybean; [4]
  Soybean plant response rating: 2
soybean; [5]
  Soybean plant response rating: 2
Giant foxtail; [1]
  Giant foxtail plant response rating: 7
Giant foxtail; [10]
  Giant foxtail plant response rating: 8
Giant foxtail; [11]
  Plant response rating, Giant foxtail: 10
Giant foxtail; [12]
  Plant response rating, Giant foxtail: 10
Giant foxtail; [2]
  Giant foxtail plant response rating: 10
Giant foxtail; [3]
  Giant foxtail plant response rating: 10
Giant foxtail; [4]
  Giant foxtail plant response rating: 0
Giant foxtail; [5]
  Giant foxtail plant response rating: 1
cocklebur; [1]
  Cocklebur plant response rating: 0
cocklebur; [10]
  Cocklebur plant response rating: 0
cocklebur; [11]
  Plant response rating, Cocklebur: 0
cocklebur; [2]
  Cocklebur plant response rating: 0
cocklebur; [3]
  Cocklebur plant response rating: 0
cocklebur; [4]
  Cocklebur plant response rating: 0
cocklebur; [5]
  Cocklebur plant response rating: 0
Duck salad; [6]
  Plant response rating, Ducksalad (0 to 10 scale, 0 is no effect, 10 is complete control): 0
Duck salad; [7]
  Ducksalad plant response rating (0 to 10 scale, 0 is no effect, 10 is complete control): 0
Duck salad; [8]
  Ducksalad plant response rating: 0
Duck salad; [9]
  Ducksalad plant response rating: 0
Surinam grass; Postemergence, Rate 250 g/ha, scale 0 to 10, 0 no effect, 10 complete control
  B. signalgrass plant response rating: 4
Surinam grass; [10]
  B. signalgrass plant response rating: 6
Surinam grass; [11]
  Plant response rating, B. signalgrass: 6
Surinam grass; [12]
  Plant response rating, B. signalgrass: 9
Surinam grass; [2]
  B. signalgrass plant response rating: 10
Surinam grass; [3]
  B. signalgrass plant response rating: 10
Surinam grass; [4]
  B. signalgrass plant response rating: 0
Surinam grass; [5]
  B. signalgrass plant response rating: 0
Purple nutsedge; [1]
  Nutsedge plant response rating: 0
Purple nutsedge; Preemergence, Rate 62 g/ha
  Plant response rating, Nutsedge: 0
Purple nutsedge; Preemergence, Rate 125 g/ha
  Plant response rating, Nutsedge: 0
Purple nutsedge; [2]
  Nutsedge plant response rating: 0
Purple nutsedge; [3]
  Nutsedge plant response rating: 0
Purple nutsedge; [4]
  Nutsedge plant response rating: 0
Purple nutsedge; [5]
  Nutsedge plant response rating: 0
rape; [1]
  Rape plant response rating: 0
rape; Preemergence, Rate 62 g/ha
  Plant response rating, Rape: 2
rape; Preemergence, Rate 125 g/ha
  Plant response rating, Rape: 2
rape; [2]
  Rape plant response rating: 7
rape; [3]
  Rape plant response rating: 10
rape; [4]
  Rape plant response rating: 0
rape; [5]
  Rape plant response rating: 0
rice; [6]
  Plant response rating, Rice (0 to 10 scale, 0 is no effect, 10 is complete control): 0
rice; [7]
  Rice plant response rating (0 to 10 scale, 0 is no effect, 10 is complete control): 0
rice; [8]
  Rice plant response rating: 0
rice; [9]
  Rice plant response rating: 0
corn; [1]
  Corn plant response rating: 0
corn; [10]
  Corn plant response rating: 0
corn; [11]
  Plant response rating, Corn: 0
corn; [12]
  Plant response rating, Corn: 0
corn; [2]
  Corn plant response rating: 2
corn; [3]
  Corn plant response rating: 3
corn; [4]
  Corn plant response rating: 0
corn; [5]
  Corn plant response rating: 0
